For series [1] the following is noted: in vivo; cited from earlier work.
The subject of series [2] is HSV-1 KOS1.1-infected Vero cells. The experiment in a line: Biosynthesis of nucleoside analog triphosphate in HSV-infected cells. Type of series: in vitro ADME.
A further series has as its system HCMV. The note with it: cited from earlier work.
In series [3] the test system is HCMV Towne-infected HFF cells. The experiment in a line: Biosynthesis of nucleoside analog triphosphate in HCMV-infected cells. Type of series: in vitro ADME. The note with it: for Other metabolites detected: five times the EC50.
The next series has as its system Uninfected HFF cells. The series is described as follows: Triphosphate formation in uninfected HFF cells. Type of series: in vitro ADME.
Another series deals with HSV. Particulars: cited from earlier work.
The test system of the next series is Uninfected Vero cells. Type of series: in vitro ADME.
The mark [4] stands for this setting: read-out: EC50 against HCMV, ref Zhou et al., 2004.
[5] abbreviates: read-out: EC50 vs HCMV, ref Qiu et al., 1998.

Structures are written as SMILES. pEC50: −log10 of the molar value. Read-outs that look alike come from different tables or passages of the source.

For the compound `O=C(O)P(=O)(O)O` [foscarnet], the “Incidence rate of nephrotoxicity” value in series [1] is ~ 50%.

Take `Nc1nc2c(ncn2COCCOP(=O)(O)OP(=O)(O)OP(=O)(O)O)c(=O)[nH]1` [ACV-TP]: the “Triphosphate level at 8 hours” value in series [2] (HSV-infected cells, 5.0 μM ACV, 8 hours) was 3.8 ± 0.3 pmol/10^6 cells. Besides, the “Delay in production of triphosphate” value in series [2] (HSV-infected cells, delay due to lack of HSV-TK early after infection) was about 2 h.

What is called pEC50 is the EC50 on a negative log10 scale, so that one unit is a factor of ten. For `Nc1nc2c(ncn2/C=C2/CC2(CO)CO)c(=O)[nH]1` [FCV, Filociclovir], the pEC50 in the series on HCMV (setting [4]) is 6.34. Moreover, the “Fold greater efficacy against HCMV compared to GCV” value in the series with HCMV (ref Zhou et al., 2004) is given as 10 fold.

For `Nc1nc(O)c2ncn(COC(CO)COP(=O)(O)OP(=O)(O)OP(=O)(O)O)c2n1` (stereo not drawn) [GCV-TP], the “Peak Triphosphate Level” value in series [3] ([…], maximum at 120 hours) was 42.6 ± 3.7 pmol/10^6 cells.

For the compound `Nc1nc2c(ncn2/C=C2/CC2CO)c(=O)[nH]1` (stereo not drawn) [synguanol], in the series with HCMV (setting [5]), the pEC50 was 5.68. For the same compound, the “Levels of phosphates in uninfected HFF cells” value in the series on Uninfected HFF cells is recorded as “no measurable levels”. For the same compound, the Other metabolites detected result in series [3] is on record as “no other metabolites”.

For the compound `Nc1nc(O)c2ncn(COC(CO)CO)c2n1` [GCV, ganciclovir], the pEC50 with HCMV (setting [4]) is 5.39; in the series with HCMV (setting [5]), 5.13. Further, the “Levels of phosphates in uninfected HFF cells” value in the series on Uninfected HFF cells was “no measurable levels”. The Other metabolites detected result in series [3] was “no other metabolites”. For the same compound, the Incidence of neutropenia in series [1] is recorded as ~ 30 % of patients.

Turning to `Nc1nc2c(ncn2COCCO)c(=O)[nH]1` [ACV, acyclovir], in the series with HSV (reported EC50 of ACV, ref Furman et al., 1981), the pEC50 is 6.00. For the same compound, the “Levels of phosphates in uninfected Vero cells” value in the series with Uninfected Vero cells is reported as “no measurable level”.

Consider `Nc1ccn(C[C@@H](CO)OCP(=O)(O)O)c(=O)n1` [cidofovir], for which, in series [1], the “Incidence rate of nephrotoxicity” value is listed as ~ 50%.

Consider `CCCCOc1nc(N)nc2c1ncn2C=C1CC1(CO)CO` [MBX-2168], for which the pEC50 is 6.10 in the series on HCMV (read-out: EC50 HCMV, ref Prichard et al., 2013) and 5.17 in the series on HSV (read-out: EC50 HSV, ref Prichard et al., 2013). In addition, the Other metabolites detected result in series [3] was “no other metabolites”; in series [2] (HSV-infected Vero cells, five times the EC50), “no other metabolites”.

The values are drawn from PMC7976169 (Antiviral research, 2020).
